Results as given in patent US10143697B2, “Pharmaceutic composition comprising of HDAC inhibitor and a steroid and the use thereof” (VALCURIA AB, priority 2011, dated 2018).

What was measured:
WSU-NHL cells [1] = experiment: pretreatment with Trichostatin A or Belinostat, Prednisolone and CHOP, viability by trypan blue exclusion; conditions: for sensitization to CHOP-treatment: pretreatment with the HDAC inhibitor alone before CHOP
Method: Viability was assessed by trypan blue exclusion at indicated time points (n=3). Significant differences were evaluated using Student's unpaired t-test. All tests were two-sided. Effects were considered statistically significant at *P<0.05, **P<0.01, ***P<0.001.

WSU-NHL cells [2] = experiment: pretreatment with VPA and prednisolone before CHOP, viability by trypan blue exclusion; format: cell-based; conditions: prednisolone (20 μg/ml) added to VPA pretreatment before CHOP, compared to pretreatment with VPA alone
Text: Pretreatment with VPA before CHOP could theoretically increase the response to CHOP therapy through induction of DNA damage. However, VPA treatment could result in symptoms such as somnolence in a patient. These symptoms could be counteracted by simultaneous treatment with prednisolone. […] All tests were two-sided.

WSU-NHL cells [3] = experiment: Rituximab antibody-dependent cellular cytotoxicity (ADCC) with NK cells, dead target cells PKH26/7-AAD double positive; format: cell-based
Method: (§1) To estimate the impact of VPA on the antibody-dependent-cellular cytotoxicity (ADCC) induced by the CD20 antibody Rituximab. […]
(§2) NK cells were added as an effector to target cell ratio of 10:1, thereafter the cells were incubated for an additional 20 hours. Dead target cells were identified as double positive for PKH26 and 7-AAD and used as readout of the assay.

SU-DHL-8 cells = experiment: as above; format: cell-based
Method: as §1, §2

[4] = Rituximab 0.1 μg/ml, +NK Cells + 1.5 mM VPA
[5] = Rituximab 0.1 μg/ml, +NK Cells + 1.5 mM VPA + CHOP
[6] = Rituximab 0.1 μg/ml, +NK cells + CHOP
[7] = Rituximab 1 μg/ml, +NK Cells + 1.5 mM VPA
[8] = Rituximab 1 μg/ml, +NK Cells + 1.5 mM VPA + CHOP
[9] = Rituximab 1 μg/ml, +NK cells + CHOP
[10] = Rituximab 10 μg/ml, +NK Cells + 1.5 mM VPA
[11] = Rituximab 10 μg/ml, +NK Cells + 1.5 mM VPA + CHOP
[12] = Rituximab 10 μg/ml, +NK cells + CHOP

CC(/C=C/C(=O)NO)=C\[C@@H](C)C(=O)c1ccc(N(C)C)cc1 [TSA, Trichostatin A]
sensitization to CHOP-treatment (WSU-NHL cells [1]): sensitizes lymphoma cell lines to CHOP-treatment

C[C@]12C=CC(=O)C=C1CC[C@@H]1[C@@H]2[C@@H](O)C[C@@]2(C)[C@H]1CC[C@]2(O)C(=O)CO [Prednisolone]
CHOP-induced cell death (WSU-NHL cells [2]): further increases significantly CHOP-induced cell death | CHOP-induced cell death (WSU-NHL cells [1]; prednisolone (20 μg/ml) added to HDAC inhibitor pretreatment before CHOP): significantly increases CHOP-induced cell death

O=C(/C=C/c1cccc(S(=O)(=O)Nc2ccccc2)c1)NO [Belinostat]
sensitization to CHOP-treatment (WSU-NHL cells [1]): sensitized DLBCL cell lines to CHOP-induced cell death

Rituximab: the CD20 antibody Rituximab
percentage of dead cells, Mean (WSU-NHL cells [3]; [4]): 40% | percentage of dead cells, Mean (WSU-NHL cells [3]; [5]): 60% | percentage of dead cells, Mean (WSU-NHL cells [3]; Rituximab 0.1 μg/ml, +NK cells): 35% | percentage of dead cells, Mean (WSU-NHL cells [3]; [6]): 45% | percentage of dead cells, Mean (WSU-NHL cells [3]; [7]): 50% | percentage of dead cells, Mean (WSU-NHL cells [3]; [8]): 60% | percentage of dead cells, Mean (WSU-NHL cells [3]; Rituximab 1 μg/ml, +NK cells): 45% | percentage of dead cells, Mean (WSU-NHL cells [3]; [9]): 54% | percentage of dead cells, Mean (WSU-NHL cells [3]; [10]): 56% | percentage of dead cells, Mean (WSU-NHL cells [3]; [11]): 66% | percentage of dead cells, Mean (WSU-NHL cells [3]; Rituximab 10 μg/ml, +NK cells): 54% | percentage of dead cells, Mean (WSU-NHL cells [3]; [12]): 61% | percentage of dead cells, Mean (SU-DHL-8 cells; [4]): 43% | percentage of dead cells, Mean (SU-DHL-8 cells; [5]): 50% | percentage of dead cells, Mean (SU-DHL-8 cells; Rituximab 0.1 μg/ml, +NK cells): 38% | percentage of dead cells, Mean (SU-DHL-8 cells; [6]): 38% | percentage of dead cells, Mean (SU-DHL-8 cells; [7]): 49% | percentage of dead cells, Mean (SU-DHL-8 cells; [8]): 63% | percentage of dead cells, Mean (SU-DHL-8 cells; Rituximab 1 μg/ml, +NK cells): 50% | percentage of dead cells, Mean (SU-DHL-8 cells; [9]): 49% | percentage of dead cells, Mean (SU-DHL-8 cells; [10]): 58% | percentage of dead cells, Mean (SU-DHL-8 cells; [11]): 66% | percentage of dead cells, Mean (SU-DHL-8 cells; Rituximab 10 μg/ml, +NK cells): 60% | percentage of dead cells, Mean (SU-DHL-8 cells; [12]): 59%
